Data reported in patent US9458137B2, “Substituted indol-5-ol derivatives and their therapeutical applications” (NantBioScience, Inc., priority 2012, dated 2016).

Legend:
AMPKα2(h) = AMPKα2(h) (Homo sapiens, UniProt P54646); test: Kinase panel activity; format: biochemical; details: 0.1 μM, ATP Km
Description: (§1) The effect of NTW-3475 on kinase activity was tested for a wide range of kinases and is shown in Table 2: Summary Sheet, Activity % ATP Concentration: Km

Ab1(m) = Ab1(m) (Mus musculus, UniProt P00520); test: Kinase panel activity; format: biochemical; details: 0.1 μM, ATP Km
Description: as §1

Arg(h) = Arg(h) (Homo sapiens, UniProt P42684); test: Kinase panel activity; format: biochemical; details: 0.1 μM, ATP Km
Description: as §1

BrSK2(h) = BrSK2(h) (Homo sapiens, UniProt Q8IWQ3); test: Kinase panel activity; format: biochemical; details: 0.1 μM, ATP Km
Description: as §1

CDK6/cyclinD3(h) = CDK6/cyclinD3(h) (Homo sapiens, UniProt Q00534); test: Kinase panel activity; format: biochemical; details: 0.1 μM, ATP Km
Description: as §1

CHK2(h) = CHK2(h) (Homo sapiens, UniProt O96017); test: Kinase panel activity; format: biochemical; details: 0.1 μM, ATP Km
Description: as §1

CLK2(h) = CLK2(h) (Homo sapiens, UniProt P49760); test: Kinase panel activity; format: biochemical; details: 0.1 μM, ATP Km
Description: as §1

DMPK(h) = DMPK(h) (Homo sapiens, UniProt Q09013); test: Kinase panel activity; format: biochemical; details: 0.1 μM, ATP Km
Description: as §1

DRAK1(h) = molecular target: T1, DRAK1(h) (Homo sapiens, UniProt Q9UEE5); test: Kinase panel activity; format: biochemical; details: 0.1 μM, ATP Km
T1 construct: purchased Millipore (KinaseProfiler service)
Description: as §1

FGFR1(V561M)(h) = molecular target: T2, FGFR1(V561M)(h) (Homo sapiens, UniProt P11362, V561M); test: Kinase panel activity; format: biochemical; details: 0.1 μM, ATP Km
T2 construct: purchased Millipore (KinaseProfiler service)
Description: as §1

GRK7(h) = GRK7(h) (Homo sapiens, UniProt Q8WTQ7); test: Kinase panel activity; format: biochemical; details: 0.1 μM, ATP Km
Description: as §1

HIPK1(h) = HIPK1(h) (Homo sapiens, UniProt Q86Z02); test: Kinase panel activity; format: biochemical; details: 0.1 μM, ATP Km
Description: as §1

Hck(h) = Hck(h) (Homo sapiens, UniProt P08631); test: Kinase panel activity; format: biochemical; details: 0.1 μM, ATP Km
Description: as §1

IGF-1R(h), activated = IGF-1R(h), activated (Homo sapiens, UniProt P08069); test: Kinase panel activity; format: biochemical; details: 0.1 μM, ATP Km
Description: as §1

IKKα(h) = IKKα(h) (Homo sapiens, UniProt O15111); test: Kinase panel activity; format: biochemical; details: 0.1 μM, ATP Km
Description: as §1

KDR(h) = KDR(h) (Homo sapiens, UniProt P35968); test: Kinase panel activity; format: biochemical; details: 0.1 μM, ATP Km
Description: as §1

Lck(h) = Lck(h) (Homo sapiens, UniProt P06239); test: Kinase panel activity; format: biochemical; details: 0.1 μM, ATP Km
Description: as §1

MAPK2(h) = MAPK2(h) (Homo sapiens, UniProt P28482); test: Kinase panel activity; format: biochemical; details: 0.1 μM, ATP Km
Description: as §1

MEK1(h) = molecular target: T3, MEK1(h) (Homo sapiens, UniProt Q02750); test: Kinase panel activity; format: biochemical; details: 0.1 μM, ATP Km
T3 construct: purchased Millipore (KinaseProfiler service)
Description: as §1

MKK4(m) = molecular target: T4, MKK4(m) (Mus musculus, UniProt P47809); test: Kinase panel activity; format: biochemical; details: 0.1 μM, ATP Km
T4 construct: purchased Millipore (KinaseProfiler service)
Description: as §1

Met(h) = molecular target: T5, Met(h) (Homo sapiens, UniProt P08581); test: Kinase panel activity; format: biochemical; details: 0.1 μM, ATP Km
T5 construct: purchased Millipore (KinaseProfiler service)
Description: as §1

NEK2(h) = NEK2(h) (Homo sapiens, UniProt P51955); test: Kinase panel activity; format: biochemical; details: 0.1 μM, ATP Km
Description: as §1

PAK5(h) = PAK5(h) (Homo sapiens, UniProt Q9P286); test: Kinase panel activity; format: biochemical; details: 0.1 μM, ATP Km
Description: as §1

PDGFRα(h) = PDGFRα(h) (Homo sapiens, UniProt P16234); test: Kinase panel activity; format: biochemical; details: 0.1 μM, ATP Km
Description: as §1

PKBα(h) = PKBα(h) (Homo sapiens, UniProt P31749); test: Kinase panel activity; format: biochemical; details: 0.1 μM, ATP Km
Description: as §1

PKCβ1(h) = PKCβ1(h) (Homo sapiens, UniProt P05771); test: Kinase panel activity; format: biochemical; details: 0.1 μM, ATP Km
Description: as §1

PKCβII(h) = PKCβII(h) (Homo sapiens, UniProt P05771); test: Kinase panel activity; format: biochemical; details: 0.1 μM, ATP Km
Description: as §1

PKCθ(h) = PKCθ(h) (Homo sapiens, UniProt Q04759); test: Kinase panel activity; format: biochemical; details: 0.1 μM, ATP Km
Description: as §1

RIPK2(h) = molecular target: T6, RIPK2(h) (Homo sapiens, UniProt O43353); test: Kinase panel activity; format: biochemical; details: 0.1 μM, ATP Km
T6 construct: purchased Millipore (KinaseProfiler service)
Description: as §1

Rsk4(h) = molecular target: T7, Rsk4(h) (Homo sapiens, UniProt Q9UK32); test: Kinase panel activity; format: biochemical; details: 0.1 μM, ATP Km
T7 construct: purchased Millipore (KinaseProfiler service)
Description: as §1

Src(1-530)(h) = molecular target: T8, Src(1-530)(h) (Homo sapiens, UniProt P12931); test: Kinase panel activity; format: biochemical; details: 0.1 μM, ATP Km
T8 construct: Src(1-530)(h); purchased Millipore (KinaseProfiler service)
Description: as §1

[1] = test system: human K562 chronic myelogenous leukemia (CML) xenograft; test: K562 CML xenograft model; format: in vivo, SCID mice; details: 5-day on, two-day off for two cycles; female SCID mice
Description: The objective of the second study was to evaluate antitumor activities of novel multiple-kinase inhibitor NTW-3475 in human K562 chronic myelogenous leukemia (CML) xenograft model in female SCID mice.
Four to six animals were randomly assigned to study groups. Each animal was weighed, and then injected subcutaneously in the left and right flank area with 0.1 ml of 8.0×10^7 K562 cells per mL.
Each test or control animal was on a 5-day on, two-day off for two cycles treatment schedule. Tumor growth was measured with a digital hand held caliper twice weekly (once tumor emerges) prior to the first dosing and then two to three times weekly until euthanized. Animals were weighed prior to tumor cell injection, prior to dosing, two to three times weekly with tumor growth measurements, and prior to euthanasia.
FIGS. 34 and 35 depict the results of various concentrations of NTW-3456 on a scid mouse/xenograft model of CML using K562 cells.

[2] = test system: TT human Thyroid carcinoma xenograft; test: TT thyroid carcinoma xenograft; format: in vivo, nude mouse; details: TT xenograft
From the text: This example assesses NTW-3475's anti-tumor activity using a scid mouse xenograft models for leukemias and nude mouse xenograft models of endometrial, pancreatic and thyroid carcinomas. NTW-3475 combination therapy was also studied in murine xenografts.
FIGS. 36-38 depict the results of various concentrations of NTW-3456 on a nude mouse/xenograft the TT cell model of thyroid carcinoma.

Sequence of PAK5(h) (Q9P286 whole entry): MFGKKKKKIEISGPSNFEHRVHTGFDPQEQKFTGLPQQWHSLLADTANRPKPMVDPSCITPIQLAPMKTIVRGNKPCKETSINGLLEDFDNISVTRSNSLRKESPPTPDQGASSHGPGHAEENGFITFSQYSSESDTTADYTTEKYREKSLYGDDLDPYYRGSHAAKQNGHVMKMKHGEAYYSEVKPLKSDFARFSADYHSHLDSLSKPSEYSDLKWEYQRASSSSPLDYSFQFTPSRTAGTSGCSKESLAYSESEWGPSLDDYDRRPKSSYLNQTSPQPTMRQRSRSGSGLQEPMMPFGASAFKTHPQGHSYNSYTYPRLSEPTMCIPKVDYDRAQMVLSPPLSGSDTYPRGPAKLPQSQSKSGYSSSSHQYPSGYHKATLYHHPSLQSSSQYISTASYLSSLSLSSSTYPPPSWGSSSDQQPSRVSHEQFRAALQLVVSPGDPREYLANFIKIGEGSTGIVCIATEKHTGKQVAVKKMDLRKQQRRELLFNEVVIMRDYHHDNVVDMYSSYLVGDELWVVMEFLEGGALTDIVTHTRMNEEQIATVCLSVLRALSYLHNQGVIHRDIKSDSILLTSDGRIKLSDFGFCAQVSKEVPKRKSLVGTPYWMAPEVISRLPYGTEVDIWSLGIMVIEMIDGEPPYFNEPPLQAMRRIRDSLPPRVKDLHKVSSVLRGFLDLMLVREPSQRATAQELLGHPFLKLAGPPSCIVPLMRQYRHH
T8 sequence (P12931 1-530): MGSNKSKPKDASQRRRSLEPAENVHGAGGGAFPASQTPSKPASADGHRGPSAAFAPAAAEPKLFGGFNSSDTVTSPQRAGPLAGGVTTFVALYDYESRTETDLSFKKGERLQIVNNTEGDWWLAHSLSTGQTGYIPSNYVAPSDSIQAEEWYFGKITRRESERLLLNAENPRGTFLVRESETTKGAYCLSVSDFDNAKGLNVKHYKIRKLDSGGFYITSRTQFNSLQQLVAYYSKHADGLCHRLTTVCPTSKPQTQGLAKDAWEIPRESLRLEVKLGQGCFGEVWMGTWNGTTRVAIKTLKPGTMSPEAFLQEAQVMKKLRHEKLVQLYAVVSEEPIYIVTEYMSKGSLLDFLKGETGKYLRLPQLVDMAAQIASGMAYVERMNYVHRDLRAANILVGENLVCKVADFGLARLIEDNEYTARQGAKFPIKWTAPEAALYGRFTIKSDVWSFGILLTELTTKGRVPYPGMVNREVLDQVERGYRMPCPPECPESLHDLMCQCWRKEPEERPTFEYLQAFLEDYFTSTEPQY
Sequence of PKCθ(h) (Q04759 whole entry): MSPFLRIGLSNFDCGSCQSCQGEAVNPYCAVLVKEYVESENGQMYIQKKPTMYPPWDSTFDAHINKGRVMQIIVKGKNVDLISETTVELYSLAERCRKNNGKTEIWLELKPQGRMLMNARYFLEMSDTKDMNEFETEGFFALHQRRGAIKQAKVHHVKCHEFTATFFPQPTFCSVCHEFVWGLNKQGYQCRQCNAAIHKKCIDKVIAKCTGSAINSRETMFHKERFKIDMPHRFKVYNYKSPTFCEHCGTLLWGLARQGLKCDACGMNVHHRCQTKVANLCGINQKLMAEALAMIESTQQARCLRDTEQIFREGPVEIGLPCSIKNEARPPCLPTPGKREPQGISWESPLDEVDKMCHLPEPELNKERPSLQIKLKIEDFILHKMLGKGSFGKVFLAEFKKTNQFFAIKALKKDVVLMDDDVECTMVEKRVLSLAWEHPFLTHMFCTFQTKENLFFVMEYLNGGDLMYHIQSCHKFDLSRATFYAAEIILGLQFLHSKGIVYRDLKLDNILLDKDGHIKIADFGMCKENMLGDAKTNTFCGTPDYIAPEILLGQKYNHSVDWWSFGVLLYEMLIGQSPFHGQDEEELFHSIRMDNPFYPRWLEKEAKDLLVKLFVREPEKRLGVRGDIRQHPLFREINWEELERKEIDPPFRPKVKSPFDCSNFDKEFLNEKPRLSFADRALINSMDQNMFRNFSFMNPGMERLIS
Sequence of CDK6/cyclinD3(h) (Q00534 whole entry): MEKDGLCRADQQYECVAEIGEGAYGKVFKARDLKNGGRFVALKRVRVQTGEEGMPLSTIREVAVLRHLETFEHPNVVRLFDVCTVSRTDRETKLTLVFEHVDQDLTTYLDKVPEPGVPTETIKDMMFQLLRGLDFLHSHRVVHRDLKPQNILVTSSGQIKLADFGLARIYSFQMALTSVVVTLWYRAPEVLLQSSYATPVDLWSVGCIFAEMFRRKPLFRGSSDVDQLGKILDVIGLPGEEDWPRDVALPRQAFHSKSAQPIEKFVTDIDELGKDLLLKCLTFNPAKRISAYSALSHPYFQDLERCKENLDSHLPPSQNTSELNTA
Sequence of CDK6/cyclinD3(h) (P30281 whole entry partner): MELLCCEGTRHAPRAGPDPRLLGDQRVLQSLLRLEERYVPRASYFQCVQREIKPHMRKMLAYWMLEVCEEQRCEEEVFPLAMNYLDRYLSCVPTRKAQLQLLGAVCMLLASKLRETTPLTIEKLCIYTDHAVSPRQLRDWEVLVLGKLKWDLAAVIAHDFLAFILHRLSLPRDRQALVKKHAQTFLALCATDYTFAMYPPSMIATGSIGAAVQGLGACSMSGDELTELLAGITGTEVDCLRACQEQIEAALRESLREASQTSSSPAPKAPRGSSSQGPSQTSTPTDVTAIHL
Sequence of PKBα(h) (P31749 whole entry): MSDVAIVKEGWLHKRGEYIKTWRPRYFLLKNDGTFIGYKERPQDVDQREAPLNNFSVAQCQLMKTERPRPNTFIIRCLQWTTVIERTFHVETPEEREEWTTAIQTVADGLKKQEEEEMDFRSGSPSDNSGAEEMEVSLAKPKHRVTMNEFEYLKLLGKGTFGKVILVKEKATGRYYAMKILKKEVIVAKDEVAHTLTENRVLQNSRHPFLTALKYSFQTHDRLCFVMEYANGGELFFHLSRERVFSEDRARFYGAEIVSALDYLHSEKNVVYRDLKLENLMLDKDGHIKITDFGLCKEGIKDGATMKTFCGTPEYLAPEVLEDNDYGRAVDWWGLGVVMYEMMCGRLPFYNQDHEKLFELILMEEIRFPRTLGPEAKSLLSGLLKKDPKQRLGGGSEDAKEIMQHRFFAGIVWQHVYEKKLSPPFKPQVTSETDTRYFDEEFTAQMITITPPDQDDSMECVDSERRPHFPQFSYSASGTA
Sequence of IGF-1R(h), activated (P08069 31-1367): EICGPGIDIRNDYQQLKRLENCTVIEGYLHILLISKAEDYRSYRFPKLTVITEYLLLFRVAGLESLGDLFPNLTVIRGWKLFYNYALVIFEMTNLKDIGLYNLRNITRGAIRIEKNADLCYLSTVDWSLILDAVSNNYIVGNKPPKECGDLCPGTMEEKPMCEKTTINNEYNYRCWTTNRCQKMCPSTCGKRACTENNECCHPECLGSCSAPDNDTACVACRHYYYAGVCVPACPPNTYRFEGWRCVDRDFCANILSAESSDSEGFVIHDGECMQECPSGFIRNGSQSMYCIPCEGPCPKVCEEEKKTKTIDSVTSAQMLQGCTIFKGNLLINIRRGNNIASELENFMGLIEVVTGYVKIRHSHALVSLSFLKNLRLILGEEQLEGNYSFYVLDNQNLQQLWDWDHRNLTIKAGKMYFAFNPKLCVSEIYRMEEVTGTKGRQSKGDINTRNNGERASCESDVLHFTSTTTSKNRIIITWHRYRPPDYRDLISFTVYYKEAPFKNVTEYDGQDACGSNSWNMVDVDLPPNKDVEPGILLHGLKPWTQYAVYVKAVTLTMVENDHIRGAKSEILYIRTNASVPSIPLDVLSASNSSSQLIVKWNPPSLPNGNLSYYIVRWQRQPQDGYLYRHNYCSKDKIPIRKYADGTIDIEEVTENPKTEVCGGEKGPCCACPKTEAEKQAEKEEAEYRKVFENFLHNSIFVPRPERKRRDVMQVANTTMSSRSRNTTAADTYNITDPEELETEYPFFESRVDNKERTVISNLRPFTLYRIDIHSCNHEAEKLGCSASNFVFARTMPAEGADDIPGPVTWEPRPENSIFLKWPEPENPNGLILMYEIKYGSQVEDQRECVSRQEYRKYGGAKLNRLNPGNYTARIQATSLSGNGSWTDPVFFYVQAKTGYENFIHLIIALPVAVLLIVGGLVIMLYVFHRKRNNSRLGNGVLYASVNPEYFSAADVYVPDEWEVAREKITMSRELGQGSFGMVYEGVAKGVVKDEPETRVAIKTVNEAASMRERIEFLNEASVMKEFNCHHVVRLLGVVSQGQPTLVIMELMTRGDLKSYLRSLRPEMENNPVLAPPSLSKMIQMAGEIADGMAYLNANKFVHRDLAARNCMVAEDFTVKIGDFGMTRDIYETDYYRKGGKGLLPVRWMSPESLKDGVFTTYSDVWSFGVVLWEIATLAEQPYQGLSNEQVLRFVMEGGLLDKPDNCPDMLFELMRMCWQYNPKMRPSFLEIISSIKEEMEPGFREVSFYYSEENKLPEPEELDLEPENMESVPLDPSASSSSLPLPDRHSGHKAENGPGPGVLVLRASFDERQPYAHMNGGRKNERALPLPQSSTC
Sequence of CHK2(h) (O96017 whole entry): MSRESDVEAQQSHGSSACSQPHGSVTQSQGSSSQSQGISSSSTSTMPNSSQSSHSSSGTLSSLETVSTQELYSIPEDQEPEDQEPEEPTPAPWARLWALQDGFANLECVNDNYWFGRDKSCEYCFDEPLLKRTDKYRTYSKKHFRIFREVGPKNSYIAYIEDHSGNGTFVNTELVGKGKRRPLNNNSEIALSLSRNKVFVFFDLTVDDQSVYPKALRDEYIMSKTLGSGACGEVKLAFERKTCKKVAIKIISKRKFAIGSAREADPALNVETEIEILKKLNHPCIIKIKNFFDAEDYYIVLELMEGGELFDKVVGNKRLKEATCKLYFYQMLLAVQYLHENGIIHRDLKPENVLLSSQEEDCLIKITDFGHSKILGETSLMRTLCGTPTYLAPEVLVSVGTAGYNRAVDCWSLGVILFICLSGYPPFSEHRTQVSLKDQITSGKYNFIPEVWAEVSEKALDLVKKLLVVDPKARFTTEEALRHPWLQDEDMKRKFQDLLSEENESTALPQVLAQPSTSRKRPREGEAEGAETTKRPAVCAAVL

Question: What does the source list for Cc1cc2c(F)c(Oc3nc(Nc4cc(C5CC5)[nH]n4)cc(N4CCN(C)CC4)n3)cc(F)c2[nH]1 [NTW-3475]?
Answer: Activity % (AMPKα2(h)): 5%; Activity % (Ab1(m)): −2%; Activity % (Arg(h)): −3%; Activity % (BrSK2(h)): 44%; Activity % (CDK6/cyclinD3(h)): 65%; Activity % (CHK2(h)): 95%; Activity % (CLK2(h)): 90%; Activity % (DMPK(h)): 102%; Activity % (DRAK1(h)): 51%; Activity % (FGFR1(V561M)(h)): −4%; Activity % (GRK7(h)): 97%; Activity % (HIPK1(h)): 91%; Activity % (Hck(h)): 18%; Activity % (IGF-1R(h), activated): 18%; Activity % (IKKα(h)): 102%; Activity % (KDR(h)): 14%; Activity % (Lck(h)): −8%; Activity % (MAPK2(h)): 105%; Activity % (MEK1(h)): 63%; Activity % (MKK4(m)): 100%; Activity % (Met(h)): 11%; Activity % (NEK2(h)): 101%; Activity % (PAK5(h)): 29%; Activity % (PDGFRα(h)): 67%; Activity % (PKBα(h)): 109%; Activity % (PKCβ1(h)): 92%; Activity % (PKCβII(h)): 109%; Activity % (PKCθ(h)): 109%; Activity % (RIPK2(h)): 90%; Activity % (Rsk4(h)): 66%; Activity % (Src(1-530)(h)): −2%; anti-tumor effect against CML [1]: strong anti-tumor effect; anti-tumor effect [2]: anti-tumor effect
